Values after ≈ are worked out from the molar mass of the structure shown. Where two headings read alike, the source gives them in different places.
What was measured:
[1] = test system: Colletotrichum gloeosporioides; experiment: Minimum inhibitory concentration (MIC), triphenyl tetrazolium chloride reduction, Colletotrichum gloeosporioides; type: cell-based; settings: for Growth of the fungus on plates: 7.81 to 250 mg/mL, analyst 1; for Growth of the fungus on plates / Absorbance compared with the control: both days; for MIC: Colletotrichum gloeosporioides; for Absorbance compared with the control: all 8 concentrations
Description: First, its effect on the growth of samples of Colletotrichum gloeosporioides was assessed. The weighting of the activity was established in a spectrophotometric model through the reduction of Triphenyl Tetrazolium Chloride as a measure of […] metabolism (oxide reduction system). The C. gloeosporioides samples were incubated for 24 h at 37° C. in the presence of increasing amounts of Andranone and the control agents Chlorothalonil and Mancozeb. After the indicated time, the amount of formazan produced was assessed by colorimetry, which is indicative of the amount of viable fungal cells after the treatments.

Fusarium oxysporum = experiment: Minimum inhibitory concentration (MIC), Fusarium oxysporum; type: cell-based; settings: for Trend of absorbance with concentration: FIG. 6, 2 days; for Growth of the fungus on plates: 15.62-2000 mg/mL
[2] = acidic or neutral conditions; cited from earlier work
various fish species = settings: 48 to 96 h after exposure; cited from earlier work
Daphnia magna = settings: cited from earlier work
small fish = settings: cited from earlier work
agricultural workers = settings: exposed agricultural workers (Dennis et al. 2010); cited from earlier work
[3] = test system: women exposed to Mancozeb; settings: exposed women (Van Wendel de Joode et al. 2014); cited from earlier work
[4] = 6 technical replicates, 2 days, with standard deviation, 24 h at 37° C.

N#Cc1c(Cl)c(Cl)c(Cl)c(C#N)c1Cl [Chlorothalonil, tetrachloro-isophthalonitrile]
Growth of the fungus on plates [1]: the fungus was not able to grow in any of the evaluated concentrations
MIC ([1]; 6 technical replicates, 2 days, with standard deviation, 24 h at 37° C., read-out: Minimum inhibitory concentration (MIC), Average Analyst 1): 7.8 mg/mL (≈ 29.3 mM)
MIC ([1]; 6 technical replicates, 2 days, with standard deviation, 24 h at 37° C., read-out: Minimum inhibitory concentration (MIC), Average Analyst 2): 23.4 ± 22.1 mg/mL (≈ 88 mM)
MIC ([1]; average of 2 analysts, with standard deviation, read-out: Minimum inhibitory concentration (MIC), Average): 15.6 ± 11 mg/mL (≈ 58.7 mM)
Absorbance compared with the control [1]: lower absorbances than the control in the 8 concentrations
Trend of absorbance with concentration (Fusarium oxysporum): trend similar to that of Mancozeb
MIC (Fusarium oxysporum; Fusarium oxysporum, average of a biological replica on 2 different days): 1000 µg/mL (≈ 3.76 mM)
Absorbance (570 nm) (Fusarium oxysporum; at the concentration at which the MIC was established, average of 2 days): 0.45 ± 0.04
Inhibition Type (Fusarium oxysporum; class from MIC): Moderate (a moderate inhibition occurs in compounds with a MIC between 0.6 to 1 mg/mL)
Growth of the fungus on plates (Fusarium oxysporum; day 1): the fungus was not able to grow in the highest concentrations of this fungicide
Growth of the fungus on plates (Fusarium oxysporum; day 2): a slight growth of the fungus was observed, mainly at concentrations of 125 to 2000 mg/mL
Stability to hydrolysis [2]: stable to hydrolysis
Median lethal toxicity values (LC50) (various fish species): less than 20 μg/L
Concentration causing a delay in reproduction (Daphnia magna): 32 µg/L
Concentration decreasing eggs per spawning, hatchability of eggs and survival of the fry (small fish): 6.5 µg/L

Mancozeb
Minimum inhibitory concentration (MIC), Average Analyst 1 [1, 4]: 7.8 ± 0.0 mg/mL
Minimum inhibitory concentration (MIC), Average Analyst 2 [1, 4]: 15.6 ± 11.0 mg/mL
Growth of the fungus on plates [1]: no growth of the fungus was observed in any of the concentrations evaluated
Absorbance compared with the control [1]: the absorbance is lower compared to the absorbance of the control
Minimum inhibitory concentration (MIC), Average ([1]; average of 2 analysts, with standard deviation): 11.7 ± 5.5 mg/mL
Trend of absorbance with concentration (Fusarium oxysporum): the absorbance increases as the concentration of this compound increase
Growth of the fungus on plates (Fusarium oxysporum; both days, no change in salt color): a slight growth of the fungus was observed, mainly at concentrations of 250 to 2000 mg/mL
Risk of developing cutaneous melanoma (agricultural workers): significantly increases the risk of developing cutaneous melanoma
Ethylene thiourea (ETU) in urine [3]: elevated levels of ethylene thiourea in urine
